Laboratory results: patent publication US20260242419A1, “A CYCLIC PEPTIDE FOR TRAPPING INTERLEUKIN-1 BETA” (Merck Sharp & Dohme LLC, priority 2023, published 2026)
Where two headings read alike, the source gives them in different places. Starred links: 1 amine or outer side, 2 acyl side, 3 side chain; linkers in the order of their positions; H or OH if unused. Non-standard residues stand in square brackets, D forms with d. Residues, ends and D or L forms follow the SMILES beside them. Ala(2-carboxypyrimidin-5-yl) = N[C@@H](Cc1cnc(C(=O)O)nc1)C(=O)O; dPro(4R-(4-pyridylmethyl)) = O=C(O)[C@H]1C[C@@H](Cc2ccncc2)CN1; Trp(βS-Me,4-F) = C[C@@H](c1c[nH]c2cccc(F)c12)[C@H](N)C(=O)O; Bip(4'-COOH) = N[C@@H](Cc1ccc(-c2ccc(C(=O)O)cc2)cc1)C(=O)O; Ala(1-bicyclo(1.1.1)pentyl) = N[C@@H](CC12CC(C1)C2)C(=O)O; dPro(4R-Bzl(4-F)) = O=C(O)[C@H]1C[C@@H](Cc2ccc(F)cc2)CN1; dPro(3S-(4-F-Bn)) = O=C(O)[C@@H]1NCC[C@@H]1Cc1ccc(F)cc1; X3 = CC(=O)NCCOc1ccc(C[C@H](N[*:1])C(=O)[*:2])cn1; X41 = O=C([C@@H](N[*:1])[C@@H](O)c1ccncc1)[*:2]; Ala(pyrimidin-5-yl) = N[C@@H](Cc1cncnc1)C(=O)O; Phe(4-COOH) = N[C@@H](Cc1ccc(C(=O)O)cc1)C(=O)O; Pro(cis-4-F) = O=C(O)[C@@H]1C[C@H](F)CN1; X23 = O=C([C@H](Cc1ncccn1)N[*:1])[*:2]; X6 = O=C([C@H](Cc1ccncn1)N[*:1])[*:2]; d(αMeD) = C[C@@](N)(CC(=O)O)C(=O)O; 4Pal = N[C@@H](Cc1ccncc1)C(=O)O; Dab = NCC[C@H](N)C(=O)O; Dap = NC[C@H](N)C(=O)O; Aib = CC(C)(N)C(=O)O

Biological target: T1, IL-1β (Homo sapiens, UniProt P01584)
T1 construct: purchased BioLegend 579404
Assay: IL-6 assay in MRC5 cells: inhibition of IL-1β induced IL-6 secretion (AlphaLISA)
Assay type: cell-based
Settings: inhibition of IL-1β induced IL-6 secretion in MRC5 cells, read-out: MRC5 IC50
Procedure, shortened: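 Compound was pre-incubated 1 h at ambient temperature with recombinant human IL-1β at 2λ EC80 before adding human lung fibroblast MRC5 cells (3000/well) in EMEM with 0.025% BSA. After overnight culture at 37 °C, 5% CO2, secreted IL-6 in conditioned medium was measured by AlphaLISA; IC50 from 4-parameter logistic fits.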

[1] = compound pre-incubated 1 hour with recombinant human IL-1β

T1 sequence (P01584 117-269): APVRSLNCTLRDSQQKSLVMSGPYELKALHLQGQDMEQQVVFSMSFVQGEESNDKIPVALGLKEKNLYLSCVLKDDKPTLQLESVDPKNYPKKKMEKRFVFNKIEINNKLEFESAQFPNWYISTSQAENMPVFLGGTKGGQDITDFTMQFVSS

SMILES | IC50 [1] [nM] | IC50 [nM]
C[C@@H](c1c[nH]c2cccc(F)c12)[C@@H]1NC(=O)[C@@H]2C[C@H](F)CN2C(=O)CNC(=O)[C@H](Cc2ccc(C(=O)O)cc2)NC(=O)[C@H](Cc2ccncc2)NC(=O)[C@H](Cc2ccc(-c3ccc(C(=O)O)cc3)cc2)NC(=O)[C@H]2[C@@H](Cc3ccc(F)cc3)CCN2C(=O)CNC(=O)[C@H](CCN)NC(=O)[C@H](CCC(N)=O)NC(=O)[C@H]([C@@H](O)c2ccncc2)NC(=O)[C@@](C)(CC(=O)O)NC(=O)[C@H](Cc2c[nH]c3ccccc23)NC(=O)[C@H](CO)NC(=O)C(C)(C)NC1=O [Example 263] (cyclo([Bip(4'-COOH)][4Pal][Phe(4-COOH)]G[Pro(cis-4-F)][Trp(βS-Me,4-F)][Aib]SW[d(αMeD)][X41]Q[Dab]G[dPro(3S-(4-F-Bn))])) | 0.017 | 
C[C@@H](c1c[nH]c2cccc(F)c12)[C@@H]1NC(=O)[C@@H]2C[C@H](F)CN2C(=O)CNC(=O)[C@H](Cc2ccc(C(=O)O)cc2)NC(=O)[C@H](Cc2ccncc2)NC(=O)[C@H](Cc2ccc(-c3ccc(C(=O)O)cc3)cc2)NC(=O)[C@H]2C[C@@H](Cc3ccncc3)CN2C(=O)CNC(=O)[C@H](CCN)NC(=O)[C@H](CCC(N)=O)NC(=O)[C@H](Cc2cnc(C(=O)O)nc2)NC(=O)C(C)(C)NC(=O)[C@H](Cc2c[nH]c3ccccc23)NC(=O)[C@H](CO)NC(=O)C(C)(C)NC1=O [Example 268] (cyclo([Bip(4'-COOH)][4Pal][Phe(4-COOH)]G[Pro(cis-4-F)][Trp(βS-Me,4-F)][Aib]SW[Aib][Ala(2-carboxypyrimidin-5-yl)]Q[Dab]G[dPro(4R-(4-pyridylmethyl))])) | 0.014 | 
C[C@@H](c1c[nH]c2cccc(F)c12)[C@@H]1NC(=O)[C@@H]2C[C@H](F)CN2C(=O)CNC(=O)[C@H](Cc2ccc(C(=O)O)cc2)NC(=O)[C@H](Cc2ccncc2)NC(=O)[C@H](Cc2ccc(-c3ccc(C(=O)O)cc3)cc2)NC(=O)[C@H]2C[C@@H](Cc3ccc(F)cc3)CN2C(=O)CNC(=O)[C@H](CCN)NC(=O)[C@H](CCC(N)=O)NC(=O)[C@H](Cc2ccncn2)NC(=O)C(C)(C)NC(=O)[C@H](Cc2c[nH]c3ccccc23)NC(=O)[C@H](CCC(=O)O)NC(=O)C(C)(C)NC1=O [Example 345] (cyclo([Bip(4'-COOH)][4Pal][Phe(4-COOH)]G[Pro(cis-4-F)][Trp(βS-Me,4-F)][Aib]EW[Aib][X6]Q[Dab]G[dPro(4R-Bzl(4-F))])) |  | 0.012
CC(=O)NCCOc1ccc(C[C@@H]2NC(=O)[C@H]3C[C@@H](Cc4ccc(F)cc4)CN3C(=O)CNC(=O)[C@H](CCN)NC(=O)[C@H](CCC(N)=O)NC(=O)[C@H](Cc3cncnc3)NC(=O)C(C)(C)NC(=O)[C@H](Cc3c[nH]c4ccccc34)NC(=O)[C@H](CCC(=O)O)NC(=O)C(C)(C)NC(=O)[C@H]([C@@H](C)c3c[nH]c4cccc(F)c34)NC(=O)[C@@H]3C[C@H](F)CN3C(=O)CNC(=O)[C@H](Cc3ccc(C(=O)O)cc3)NC(=O)[C@H](Cc3ccncc3)NC2=O)cn1 [Example 12] (cyclo([X3][4Pal][Phe(4-COOH)]G[Pro(cis-4-F)][Trp(βS-Me,4-F)][Aib]EW[Aib][Ala(pyrimidin-5-yl)]Q[Dab]G[dPro(4R-Bzl(4-F))])) |  | 0.072
C[C@@H](c1c[nH]c2cccc(F)c12)[C@@H]1NC(=O)[C@@H]2C[C@H](F)CN2C(=O)CNC(=O)[C@H](Cc2ccc(C(=O)O)cc2)NC(=O)[C@H](Cc2ccncc2)NC(=O)[C@H](Cc2ccc(-c3ccc(C(=O)O)cc3)cc2)NC(=O)[C@H]2C[C@@H](Cc3ccc(F)cc3)CN2C(=O)CNC(=O)[C@H](CCN)NC(=O)[C@H](CCC(N)=O)NC(=O)[C@H](Cc2ncccn2)NC(=O)C(C)(C)NC(=O)[C@H](Cc2c[nH]c3ccccc23)NC(=O)[C@H](CCC(=O)O)NC(=O)C(C)(C)NC1=O [Example 113] (cyclo([Bip(4'-COOH)][4Pal][Phe(4-COOH)]G[Pro(cis-4-F)][Trp(βS-Me,4-F)][Aib]EW[Aib][X23]Q[Dab]G[dPro(4R-Bzl(4-F))])) |  | 0.018
C[C@@H](c1c[nH]c2cccc(F)c12)[C@@H]1NC(=O)[C@@H]2C[C@H](F)CN2C(=O)CNC(=O)[C@H](Cc2ccc(C(=O)O)cc2)NC(=O)[C@H](CC23CC(C2)C3)NC(=O)[C@H](Cc2ccc(-c3ccc(C(=O)O)cc3)cc2)NC(=O)[C@H]2C[C@@H](Cc3ccncc3)CN2C(=O)CNC(=O)[C@H](CN)NC(=O)[C@H](CCC(N)=O)NC(=O)[C@H](Cc2cncnc2)NC(=O)C(C)(C)NC(=O)[C@H](Cc2c[nH]c3ccccc23)NC(=O)[C@H](CCC(=O)O)NC(=O)C(C)(C)NC1=O [Example 46] (cyclo([Bip(4'-COOH)][Ala(1-bicyclo(1.1.1)pentyl)][Phe(4-COOH)]G[Pro(cis-4-F)][Trp(βS-Me,4-F)][Aib]EW[Aib][Ala(pyrimidin-5-yl)]Q[Dap]G[dPro(4R-(4-pyridylmethyl))])) |  | 0.034
